The text below walks through data of US20230167108A1, “CRYSTAL OF IMIDAZOPYRIDINONE COMPOUND OR SALT THEREOF” (Kissei Pharmaceutical Co., Ltd., priority 2020, published 2023).

pIC50: −log10 of the molar value. Some results are limits rather than exact numbers.

Series [1] deals with TNBS induced colitis model rat. The experiment in a line: Therapeutic effect in colitis model (suppression of intestinal permeability of FITC). The format is in vivo. As to conditions: 3 mg/kg orally once a day for 3 days, serum FITC, mean. The procedure: Test Example 2 Therapeutic Effect in Colitis Model
(1) TNBS Induced Colitis Model Rat
Thus, the suppressive effect on the intestinal permeability based on oral administration of the test compound was evaluated as an indicator of medicinal efficacy.
SD male rats: 8-week-old SIX (Japan SLC) were used, Under pentobarbital anesthesia, 300 μL of 28 mg/mL TNBS which was adjusted with 50% ethanol was administered at a point 8 cm from the anus in the large intestine to cause inflammation. To the solvent-treated group was administrated 300 μL of 50% ethanol. Animals were fasted for 48 hours prior to administration of TNBS. The test compound (3 mg/kg) prepared with 0.05% methylcellulose solution was orally administered once a day from the next day, and it was administered for a total of 3 days. After administering for 3 clays, 50 mg/kg FITC was orally administered 4 hours after the administration of the test compound. Blood samples were collected from jugular vein under isoflurane anesthesia after 4 hours. The serum was centrifuged, and fluorescence intensity was detected by PHERAstar FSX (BMG Labtech) to measure the concentration of FITC permeating into circulating blood through the mesentery. The suppressive rate on the intestinal permeability of the test compound was calculated based on the value of the test substance-free group as 0 and the value of the TNBS-untreated group as 100.

Series [2] is described as follows: Rat PK study: concentration of compound in large intestine tissue and plasma. As to conditions: 3 mg/kg oral, non-fasted SD rats. The series is classed as in vivo. The method, then: Test Example 3 Concentration of Compound in Large Intestine Tissue
The test compound (3 mg/kg/5 mL) prepared with 0.05% methylcellulose was orally administered to non-fasted rats (SD, 8-week-old, male, T SLC). Blood samples were collected from jugular vein 0.25, 0.5, 1, 2, 4, 6 and […] hours after the administration. Laparotomy was performed under isoflurane anesthesia, and the large intestine was isolated. The collected distal large intestine (about 5 cm) was cut open, and then the large intestine extracted was washed with saline on a dish. After washing, the large intestine was minced with small scissors. About 150 mg thereof was moved to a tube. To the tube was added 100 μL of saline, and the mixture was homogenized using shake master (1000 rpm×30 minutes). Samples were prepared by the addition with quadruple volume of saline as the final volume. The concentrations of the test compound in the large intestine tissue and the plasma were measured through a quantitative analysis using liquid chromatography-mass spectrometry (LC/MS).
Cmax: maximum plasma concentration of the test compound in the case of oral administration (ng/mL) AUC: area under the plasma test compound concentration-time curve (ng*min/mL) Plasma: plasma test compound concentration after 8 hours (ng/mL) Colon: concentration of the test compound in the large intestine tissue after hours (ng/g) C/P: ratio of the above Colon and Plasma

The target of another series is T1, human PHD2184-418 (Homo sapiens, UniProt Q9GZT9).
T1 construct: containing amino acid residues 184 to 418 of the protein represented by CAC42509; histidine tag (N); made in house; host or cells: E. coli BL21 (DE3), pET-30a (+) vector
T1 sequence (Q9GZT9 184-418): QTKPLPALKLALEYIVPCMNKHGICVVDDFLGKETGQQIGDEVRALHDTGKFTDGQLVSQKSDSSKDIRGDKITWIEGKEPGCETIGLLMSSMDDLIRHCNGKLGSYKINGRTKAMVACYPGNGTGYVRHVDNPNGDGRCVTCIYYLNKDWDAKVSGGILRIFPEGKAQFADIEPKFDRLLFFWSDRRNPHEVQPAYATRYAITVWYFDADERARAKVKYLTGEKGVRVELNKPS
The experiment in a line: PHD2 inhibitory test (fluorescence polarization, FITC-labeled HIF-1α556-574). The series is classed as binding. As to conditions: 2 μM 2-oxoglutarate, 37° C. for 60 minutes. The procedure: Test Example 1 PHD2 Inhibitory Test
(1) Expression and Preparation of Human […]
Human PHD2184-418 is containing amino acid residues 184 to 418 of the protein represented by CAC42509 (GenBank accession ID) was expressed and prepared by the following method.
An expression construct of human PHD2184-418 containing an N-terminal histidine tag was introduced into pET-30a (+) vector, and the sequence was confirmed. This vector was introduced into BL21 (DE3) strain and cultured at 37° C. in LB medium containing antibiotics. After culturing, a cell lysis solution was added to the cells, and then the cells were disrupted and suspended by sonication. The disrupted suspension was centrifuged, and the supernatant was purified by Ni column to give human PHD2184-418.
Human HIF-1α556-574 (FITC-labeled HIF-1α556-574), containing FITC-Ahx at the N-terminal of HIF-1α556-574 containing amino acid residues 556 to 574 (partial peptide) of human HIF-1α, was used as a substrate. Using FITC-labeled HIF-1α556-574, the competitive inhibition between 2-oxoglutarate and the test compound ([…]) was evaluated based on the change in fluorescence polarization of FITC-labeled HIF-1α556-574 by the following method.
An enzyme (human PHD2184-418) and the substrate were diluted with an assay buffer (pH 7.4) containing 10 mM HEPES, 150 mM NaCl, 10 μM MnCl2-4H2O, 2 μM 2-oxoglutarate and 0.05% Tween-20. […]

Series [3] in a line: Solid stability test (physicochemical and chemical stability of crystals). As to conditions: open condition at 40° C., 1 month; for Amount of the mass change of the compound 1: HPLC area normalization; for Properties: appearance; for Crystal form change: powder X-ray diffraction. An excerpt: Test Example 4: Solid Stability Test
The physicochemical stability and chemical stability for the crystals of the compound 1 (crystal forms I to III), the crystals of the methanesulfonic acid salt of the compound 1 (crystal forms I, II and IV), the crystals of the hydrochloride (crystal forms I and III), the crystal form I of the p-toluenesulfonic acid salt, the crystal form I of the sodium salt and the crystal form I of the calcium salt were examined.
Physicochemical stability: Each crystal was stored under open condition at 40° C. The powder X-ray diffraction of the sample was measured at the initial point and 1 month later, and the change in crystal form Was confirmed. The change in properties was also observed at the same time. Chemical stability: Each crystal was stored under open condition at 40° C. The mass of the compound 1 in the sample was measured under the following HPLC measurement conditions at the initial point and 1 month later.
Detector: Ultraviolet and visible absorptiometer/wavelength: 225 nm
Column: L-column 2 ODS, 3 μm, 4.6×150 mm (Chemicals Evaluation and Research Institute)
Column temperature: Constant temperature around 40° C. Flow rate: 1.0 mL/min Mobile phase A: Potassium dihydrogenphosphate and dipotassium hydrogenphosphate aqueous solution adjusted to 10 mmol/L with water Mobile phase B: Acetonitrile Mobile phase ratios: 0 to 30 minutes: mobile phase A/mobile phase B=88/12 30 to 50 minutes: mobile phase A/mobile phase B=88/12 to 25/75 50 to 55 minutes: mobile phase A/mobile phase B=25/75 55 to 55.01 minutes: mobile phase A/mobile phase B=25/75 to 88/12 55.01 to 75 minutes: mobile phase Airmobile phase B=88/12 Amount of injection: 5 μL Sample cooler: 4° C. Dissolution solvent: Mixed solution (mobile phase A/acetonitrile=75/25) Sample solution: Sample was dissolved in dissolution solvent and adjusted to about 1 mg/mL
Excluding the peaks derived from the blank, the peak areas of the compound 1 and an analogous substance were measured by automatic integration, and the mass of the compound 1 was calculated by area normalization method. Further, the amount of the mass change of the compound 1 after the storage was calculated.

For `Cn1c(C(=O)O)cnc1CN1CC[C@H](n2c(=O)n(-c3ccc(-c4ccc(C(=O)O)cc4)nc3)c3cccnc32)C1` [Compound 1, 2-{[(3S)-3-{1-[6-(4-Carboxyphenyl)pyridin-3-yl]-2-oxo-2,3-dihydro-1H-imidazo[4,5-b]pyridin-3-yl}pyrrolidin-1-yl]methyl}-1-methyl-1H-imidazole-5-carboxylic Acid], the “Inhibition (%): suppressive rate on the intestinal permeability” value is given as 101% in series [1] and “suppressed” in series [1] (listed as compound 1). For the same compound, the “C/P: ratio of Colon and Plasma” value in series [2] is given as “higher concentration in the large intestine tissue than the concentration in the plasma”. Also, the “Colon: concentration of the test compound in the large intestine tissue” value in series [2] (distal large intestine) was 164 ng/g. For the same compound, in series [2] (male, rat, large intestine tissue / plasma, read-out: C/P: ratio of Colon and Plasma), the Kp was over 164. Moreover, the concentration at 8 h in series [2] (male, rat, plasma, 8 hours, read-out: Plasma: plasma test compound concentration after 8 hours) was under 1 ng/mL. Moreover, the AUC in series [2] (male, rat, plasma, read-out: AUC: area under the plasma test compound concentration-time curve (converted)) is 1.95 ng·h/mL. Moreover, the Cmax in series [2] (male, rat, plasma, read-out: Cmax: maximum plasma concentration of the test compound) worked out at 1 ng/mL. In addition, the “IC50 (human PHD2 binding inhibitory activity)” value on human PHD2184-418 is “inhibited binding between PHD2 and HIF-1α”. For the same compound, the negative-log IC50 (pIC50) (as a rule, the negative decadic logarithm of the IC50, by convention in mol/L) at human PHD2184-418 (read-out: IC50 (human PHD2 binding inhibitory activity)) was 6.74.
`Cn1c(C(=O)O)cnc1CN1CC[C@H](n2c(=O)n(-c3ccc(-c4ccc(C(=O)O)cc4)nc3)c3cccnc32)C1` [Crystal form II of the compound 1]: in series [3], the “Amount of the mass change of the compound 1” value is given as −0.03%; the Properties result is given as “White powder, no change”; the Crystal form change result was “No change”.
Regarding `Cn1c(C(=O)O)cnc1CN1CC[C@H](n2c(=O)n(-c3ccc(-c4ccc(C(=O)O)cc4)nc3)c3cccnc32)C1` [Crystal form I of the compound 1], in series [3], the “Amount of the mass change of the compound 1” value is given as “No change”; the Properties entry is reported as “White powder, no change”; the Crystal form change entry is reported as “No change”.
As to `Cn1c(C(=O)O)cnc1CN1CC[C@H](n2c(=O)n(-c3ccc(-c4ccc(C(=O)O)cc4)nc3)c3cccnc32)C1` [Crystal form III of the compound 1], in series [3], the “Amount of the mass change of the compound 1” value was −0.04%; the Properties result is “White powder, no change”; the Crystal form change entry is reported as “No change”.
